The source of these data is US12558342B2, “2-[2-({12,12-dimethyl-4-oxo-6-phenyl-3,11-dioxatricyclo[8.4.0.0,2,7]tetradeca-1,5,7,9-tetraen-8-yl}oxy)acetamido]benzamide and derivatives as inhibitor of clock:bmal1 interaction for the treatment of circadian rhythm diseases and disorders” (KOC UNIVERSITESI, priority 2019, dated 2026).

Test [1] concerns Bmal1::dluc U2OS cells. The experiment in a line: Real-time monitoring of circadian rhythm, Bmal1::dluc U2OS. The test is classed as cell-based, human. On the procedure: We used Bmal1::dluc U2-OS and Per1::dluc NIH 3T3, and continuously monitored the bioluminescence to record circadian rhythm. This experiment was performed in 96-well plates (triplicates) and 35-mm dishes (duplicates) in the secondary screen and detailed characterization steps respectively. Briefly, cells were seeded to reach confluency. A day after, the medium was replaced with DMEM containing 0.1 μM Dexamethasone to synchronize cells. Two hour later, 0.1 mM of Luciferin was freshly added to the recording medium (low glucose DMEM powder (with L-glutamine) supplemented with 10 mM HEPES, […] sodium bicarbonate, 3.5 mg/ml D-(+)-glucose powder, 5% FBS, 0.1 mM NEAA, 100 U/ml penicillin and […]). Then, the medium was replaced with recording medium containing appropriate amount of each compound. Control cells were treated with 0.5% vehicle (DMSO). For a detailed characterization of CLK8, whenever required, and without any further medium change, small molecule treatment was postponed to two days after bioluminescence recording started. The 96-well plates were covered and bioluminescence was monitored by Synergy H1 Hybrid Multi-Mode Reader every 32 minutes. Similarly, we sealed the 35-mm plates with vacuum grease prior to mounting them on a LumiCycle luminometer (Actimetrics). Bioluminescence was recorded every 10 minutes for 4-6 days. Raw data (counts/sec) were plotted against time. The period and amplitude parameters were obtained using LumiCycle Analysis software (Actimetrics). First, the raw data was baseline fitted (n=1), and then the baseline-subtracted data was fitted to a sine wave (damped). The first day's data was excluded from the analysis due to transient perturbations of luminescence after the medium change.
We used Bmal1::dluc U2-OS and Per1::dluc NIH 3T3, and continuously monitored the bioluminescence to record circadian rhythm. This experiment was performed in 96-well plates (triplicates) and 35-mm dishes (duplicates) in the secondary screen and detailed characterization steps respectively. Briefly, cells were seeded to reach confluency. A day after, the medium was replaced with DMEM containing 0.1 μM Dexamethasone to synchronize cells. Two hour later, 0.1 mM of Luciferin was freshly added to the recording medium (low glucose DMEM powder (with L-glutamine) supplemented with 10 mM HEPES, 0.35 mg/ml sodium bicarbonate, 3.5 mg/ml D-(+)-glucose powder, 5% FBS, 0.1 mM NEAA, 100 U/ml penicillin and […]). […] The 96-well plates were covered and bioluminescence was monitored by Synergy H1 Hybrid Multi-Mode Reader every 32 minutes. […] Bioluminescence was recorded every 10 minutes for 4-6 days. […] The first day's data was excluded from the analysis due to transient perturbations of luminescence after the medium change.

The target of test [2] is T1, NAV2 (Homo sapiens, UniProt Q8IVL1).
T1 construct: endogenous in cells; host or cells: HEK 293T
The experiment in a line: LC-MS/MS of pull-down precipitates, NAV2. The test is classed as binding. As to conditions: Competitor 0 μM. The procedure: HEK293T cells were transiently transfected with tag-free hsClock and mBmal1. After 48 hours of transfection, cells were harvested and whole cell lysate was prepared with ice-cold lysis buffer (50 mM Tris-HCl pH 7.4, 2 mM EDTA, 1 mM MgCl2, 0.2% NP-40, 1 mM sodium orthovanadate, 1 mM sodium fluoride and protease inhibitor cocktail) followed by centrifugation at 7000×g at 4° C. for 10 minutes. Lysate was diluted with ice-cold 2× binding buffer (100 mM Tris-HCl pH 7.4, 300 mM NaCl, 0.2% NP-40, 2 mM sodium orthovanadate, 2 mM sodium fluoride, and protease inhibitor cocktail) 27. The lysate was divided into three fractions to be treated with either DMSO, or 20 μM of bitoinylated-CLK8 (bait) with or without 200 μM CLK8 (competitor). […]
The next step was to check for off-targets of CLK8. […] Since the amount of precipitated endogenous CLOCK was insufficient to be detected in LC-MS/MS, whole cell lysate of HEK 293T cells overexpressing CLOCK and BMAL1 were used for LC-MS/MS. We determined proteins that potentially bind to CLK8 by utilizing a minimum threshold for peptide spectrum matches and coverage equal to those of the main target, CLOCK. We also excluded proteins that have been detected in negative controls of the CRAPome database (32), assuming them as abundant sticky proteins. […] BMAL1 was detected in lower amounts when a competitor was present. […]

T1 sequence (Q8IVL1 whole entry): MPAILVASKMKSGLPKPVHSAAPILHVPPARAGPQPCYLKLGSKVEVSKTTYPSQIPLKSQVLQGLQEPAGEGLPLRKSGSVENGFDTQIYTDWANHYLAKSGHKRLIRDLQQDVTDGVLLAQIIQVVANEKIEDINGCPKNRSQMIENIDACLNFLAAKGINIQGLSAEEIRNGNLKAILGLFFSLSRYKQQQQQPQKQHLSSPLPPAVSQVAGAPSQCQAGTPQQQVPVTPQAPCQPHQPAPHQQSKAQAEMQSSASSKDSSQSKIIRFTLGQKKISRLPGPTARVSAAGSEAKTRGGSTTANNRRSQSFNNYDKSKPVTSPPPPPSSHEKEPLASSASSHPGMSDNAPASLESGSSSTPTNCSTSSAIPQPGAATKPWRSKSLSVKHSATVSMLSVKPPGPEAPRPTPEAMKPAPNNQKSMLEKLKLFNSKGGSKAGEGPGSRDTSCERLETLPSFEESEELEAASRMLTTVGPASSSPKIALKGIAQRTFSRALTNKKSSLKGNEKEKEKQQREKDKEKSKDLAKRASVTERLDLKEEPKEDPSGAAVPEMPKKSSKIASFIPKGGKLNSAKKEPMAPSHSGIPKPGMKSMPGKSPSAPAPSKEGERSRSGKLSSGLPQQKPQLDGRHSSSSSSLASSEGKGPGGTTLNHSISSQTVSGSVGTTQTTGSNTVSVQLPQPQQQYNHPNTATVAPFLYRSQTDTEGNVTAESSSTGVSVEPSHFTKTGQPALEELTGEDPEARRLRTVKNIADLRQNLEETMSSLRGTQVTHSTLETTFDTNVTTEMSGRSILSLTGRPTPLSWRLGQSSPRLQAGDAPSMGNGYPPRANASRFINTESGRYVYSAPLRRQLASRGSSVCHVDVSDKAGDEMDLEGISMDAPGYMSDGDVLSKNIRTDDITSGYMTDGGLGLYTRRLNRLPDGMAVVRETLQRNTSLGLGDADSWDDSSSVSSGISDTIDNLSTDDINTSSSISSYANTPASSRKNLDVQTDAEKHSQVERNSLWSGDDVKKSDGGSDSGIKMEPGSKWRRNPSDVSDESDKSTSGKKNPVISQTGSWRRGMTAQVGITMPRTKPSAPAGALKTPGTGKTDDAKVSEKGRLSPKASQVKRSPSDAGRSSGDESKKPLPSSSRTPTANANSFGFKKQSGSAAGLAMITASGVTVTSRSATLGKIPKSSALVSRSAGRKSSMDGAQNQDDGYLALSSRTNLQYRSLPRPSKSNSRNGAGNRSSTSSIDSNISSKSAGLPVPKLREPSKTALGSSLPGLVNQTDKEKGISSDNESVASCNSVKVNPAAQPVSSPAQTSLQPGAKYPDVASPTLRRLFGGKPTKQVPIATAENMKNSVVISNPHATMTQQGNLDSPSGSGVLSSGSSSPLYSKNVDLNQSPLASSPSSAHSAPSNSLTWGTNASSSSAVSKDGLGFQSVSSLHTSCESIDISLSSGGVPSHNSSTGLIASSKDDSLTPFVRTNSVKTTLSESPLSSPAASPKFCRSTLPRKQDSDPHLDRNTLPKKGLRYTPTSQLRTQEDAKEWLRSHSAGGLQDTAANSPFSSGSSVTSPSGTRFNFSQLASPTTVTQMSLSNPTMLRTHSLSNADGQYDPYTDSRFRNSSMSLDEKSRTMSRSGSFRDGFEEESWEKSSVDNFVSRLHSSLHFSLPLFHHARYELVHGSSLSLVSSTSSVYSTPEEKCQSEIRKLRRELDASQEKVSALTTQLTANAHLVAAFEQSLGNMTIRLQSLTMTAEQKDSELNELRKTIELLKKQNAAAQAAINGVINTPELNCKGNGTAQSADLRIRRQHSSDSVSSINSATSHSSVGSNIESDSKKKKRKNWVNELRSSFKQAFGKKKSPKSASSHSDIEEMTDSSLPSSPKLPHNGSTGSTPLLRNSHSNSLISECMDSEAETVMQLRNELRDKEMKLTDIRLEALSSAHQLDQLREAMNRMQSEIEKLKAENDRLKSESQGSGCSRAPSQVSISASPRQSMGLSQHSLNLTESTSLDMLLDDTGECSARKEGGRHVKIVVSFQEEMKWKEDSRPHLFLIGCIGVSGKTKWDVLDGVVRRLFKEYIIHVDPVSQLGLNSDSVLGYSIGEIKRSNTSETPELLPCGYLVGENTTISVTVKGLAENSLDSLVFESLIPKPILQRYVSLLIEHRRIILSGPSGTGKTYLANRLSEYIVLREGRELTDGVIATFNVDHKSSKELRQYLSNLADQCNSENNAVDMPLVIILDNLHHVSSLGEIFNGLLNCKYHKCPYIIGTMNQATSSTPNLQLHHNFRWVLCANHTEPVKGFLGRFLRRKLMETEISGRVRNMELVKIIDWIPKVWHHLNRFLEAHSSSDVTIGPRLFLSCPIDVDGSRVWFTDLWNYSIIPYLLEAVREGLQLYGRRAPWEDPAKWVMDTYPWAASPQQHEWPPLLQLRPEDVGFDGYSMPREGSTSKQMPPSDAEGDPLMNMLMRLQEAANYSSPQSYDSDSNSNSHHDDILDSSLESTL

In the case of `CC1(C)CCc2c(cc(OCC(=O)Nc3ccccc3C(N)=O)c3c(-c4ccccc4)cc(=O)oc23)O1` [CLK8, 2-[2-({12,12-dimethyl-4-oxo-6-phenyl-3,11-dioxatricyclo [8.4.0.0,2,7]tetradeca-1,5,7,9-tetraen-8-yl}oxy)acetamido] benzamide], the enhancement of amplitude entry in test [1] (10 μM, treated two days after synchronization) is reported as “more than 50%”. Moreover, in test [1] (U2OS-Bmal1::dLuc), the “period of circadian rhythm” value is recorded as “no period changes”. Besides, the “amplitude of circadian rhythm” value in test [1] (U2OS-Bmal1::dLuc, dose dependent) is “enhances the amplitude”. The “phase of the first trough after treatment” value in test [1] (treated two days after synchronization, vs DMSO control) was “advanced the phase of the first trough”. In addition, the “Peptide spectrum matches, NAV2” value in test [2] was determined as 263.
